#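 Assay format: 96-well plates, 48-hour exposure. At the TGI there is no net growth.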
# Legend:
# Test in all cases: NCI anticancer screen, dose series, 48 h
# HCC-2998 colon = tested on: HCC-2998 colon
# HCT-116 colon = tested on: HCT-116 colon
# SK-MEL-5 melanoma = tested on: SK-MEL-5 melanoma
# UACC-257 melanoma = tested on: UACC-257 melanoma
# NCI/ADR-RES ovarian = tested on: NCI/ADR-RES ovarian
# PC-3 prostate = tested on: PC-3 prostate
# OVCAR-4 ovarian = tested on: OVCAR-4 ovarian
# SF-268 CNS = tested on: SF-268 CNS
# HOP-62 NSCLC = tested on: HOP-62 NSCLC
# NCI-H522 lung = tested on: NCI-H522 lung
# KM12 colon = tested on: KM12 colon
# A549 NSCLC = tested on: A549 NSCLC
# SK-OV-3 ovarian = tested on: SK-OV-3 ovarian
# RXF 393 renal = tested on: RXF 393 renal
# HCT-15 colon = tested on: HCT-15 colon
# T-47D breast = tested on: T-47D breast
# A498 renal = tested on: A498 renal
# CAKI-1 renal = tested on: CAKI-1 renal
# DU-145 prostate = tested on: DU-145 prostate
# OVCAR-8 ovarian = tested on: OVCAR-8 ovarian
# MDA-MB-231 breast = tested on: MDA-MB-231 breast
# OVCAR-5 ovarian = tested on: OVCAR-5 ovarian
# LOX IMVI melanoma = tested on: LOX IMVI melanoma
# SNB-19 CNS = tested on: SNB-19 CNS
# MALME-3M melanoma = tested on: MALME-3M melanoma
# UO-31 renal = tested on: UO-31 renal
# COLO 205 colon = tested on: COLO 205 colon
# EKVX NSCLC = tested on: EKVX NSCLC
# OVCAR-3 ovarian = tested on: OVCAR-3 ovarian
# SF-539 CNS = tested on: SF-539 CNS
# M14 melanoma = tested on: M14 melanoma
# HOP-92 NSCLC = tested on: HOP-92 NSCLC
# NCI-H460 lung = tested on: NCI-H460 lung
# SF-295 CNS = tested on: SF-295 CNS
# IGROV1 ovarian = tested on: IGROV1 ovarian
# BT-549 breast = tested on: BT-549 breast
# TK-10 renal = tested on: TK-10 renal
# U251 CNS = tested on: U251 CNS
# MDA-N = tested on: MDA-N
# SNB-75 CNS = tested on: SNB-75 CNS
# 786-0 renal = tested on: 786-0 renal
# NCI-H23 lung = tested on: NCI-H23 lung
# UACC-62 melanoma = tested on: UACC-62 melanoma
# HS 578T breast = tested on: HS 578T breast
# MDA-MB-435 = tested on: MDA-MB-435
# SK-MEL-2 melanoma = tested on: SK-MEL-2 melanoma
# ACHN renal = tested on: ACHN renal
# HT29 colon = tested on: HT29 colon
# NCI-H226 lung = tested on: NCI-H226 lung
# SN12C renal = tested on: SN12C renal
# MCF7 breast = tested on: MCF7 breast
# MOLT-4 leukemia = tested on: MOLT-4 leukemia
# RPMI-8226 leukemia = tested on: RPMI-8226 leukemia
# CCRF-CEM leukemia = tested on: CCRF-CEM leukemia
# SW-620 colon = tested on: SW-620 colon
# SK-MEL-28 melanoma = tested on: SK-MEL-28 melanoma
# HL-60(TB) leukemia = tested on: HL-60(TB) leukemia
# K-562 leukemia = tested on: K-562 leukemia
smiles,measurement,setting,value
C=C(Cl)CN1c2ccccc2C=Cc2ccccc21,TGI,HCC-2998 colon,33.7 µM
same,TGI,HCT-116 colon,29 µM
same,TGI,SK-MEL-5 melanoma,20.3 µM
same,TGI,UACC-257 melanoma,49.8 µM
same,TGI,NCI/ADR-RES ovarian,> 100 µM
same,TGI,PC-3 prostate,> 100 µM
same,TGI,OVCAR-4 ovarian,97.9 µM
same,TGI,SF-268 CNS,> 100 µM
same,TGI,HOP-62 NSCLC,89.9 µM
same,TGI,NCI-H522 lung,82 µM
same,TGI,KM12 colon,48.9 µM
same,TGI,A549 NSCLC,> 100 µM
same,TGI,SK-OV-3 ovarian,> 100 µM
same,TGI,RXF 393 renal,33 µM
same,TGI,HCT-15 colon,> 100 µM
same,TGI,T-47D breast,65.2 µM
same,TGI,A498 renal,66.9 µM
same,TGI,CAKI-1 renal,52.9 µM
same,TGI,DU-145 prostate,> 100 µM
same,TGI,OVCAR-8 ovarian,> 100 µM
same,TGI,MDA-MB-231 breast,35.7 µM
same,TGI,OVCAR-5 ovarian,50.8 µM
same,TGI,LOX IMVI melanoma,52.4 µM
same,TGI,SNB-19 CNS,> 100 µM
same,TGI,MALME-3M melanoma,77.9 µM
same,TGI,UO-31 renal,82 µM
same,TGI,COLO 205 colon,30.4 µM
same,TGI,EKVX NSCLC,49.9 µM
same,TGI,OVCAR-3 ovarian,33.9 µM
same,TGI,SF-539 CNS,75.2 µM
same,TGI,M14 melanoma,57.8 µM
same,TGI,HOP-92 NSCLC,61.2 µM
same,TGI,NCI-H460 lung,16.2 µM
same,TGI,SF-295 CNS,35.2 µM
same,TGI,IGROV1 ovarian,> 100 µM
same,TGI,BT-549 breast,> 100 µM
same,TGI,TK-10 renal,> 100 µM
same,TGI,U251 CNS,30.9 µM
same,TGI,MDA-N,64.1 µM
same,TGI,SNB-75 CNS,61.9 µM
same,TGI,786-0 renal,> 100 µM
same,TGI,NCI-H23 lung,> 100 µM
same,TGI,UACC-62 melanoma,44.2 µM
same,TGI,HS 578T breast,> 100 µM
same,TGI,MDA-MB-435,44.7 µM
same,TGI,SK-MEL-2 melanoma,40.6 µM
same,TGI,ACHN renal,35.4 µM
same,TGI,HT29 colon,56.4 µM
same,TGI,NCI-H226 lung,70.2 µM
same,TGI,SN12C renal,57.3 µM
same,TGI,MCF7 breast,50.4 µM
O=C1C(OC(=O)c2ccccc2)=C(c2ccc(O)cc2)C(=O)C(OC(=O)c2ccccc2)=C1c1ccc(O)cc1,TGI,HCC-2998 colon,> 100 µM
same,TGI,HCT-116 colon,> 100 µM
same,TGI,SK-MEL-5 melanoma,> 100 µM
same,TGI,UACC-257 melanoma,> 100 µM
same,TGI,NCI/ADR-RES ovarian,> 100 µM
same,TGI,PC-3 prostate,> 100 µM
same,TGI,OVCAR-4 ovarian,> 100 µM
same,TGI,MOLT-4 leukemia,> 100 µM
same,TGI,SF-268 CNS,> 100 µM
same,TGI,NCI-H522 lung,> 100 µM
same,TGI,KM12 colon,> 100 µM
same,TGI,A549 NSCLC,> 100 µM
same,TGI,SK-OV-3 ovarian,> 100 µM
same,TGI,RPMI-8226 leukemia,> 100 µM
same,TGI,HCT-15 colon,> 100 µM
same,TGI,T-47D breast,> 100 µM
same,TGI,A498 renal,> 100 µM
same,TGI,CAKI-1 renal,> 100 µM
same,TGI,DU-145 prostate,> 100 µM
same,TGI,OVCAR-8 ovarian,> 100 µM
same,TGI,MDA-MB-231 breast,> 100 µM
same,TGI,CCRF-CEM leukemia,> 100 µM
same,TGI,OVCAR-5 ovarian,> 100 µM
same,TGI,LOX IMVI melanoma,> 100 µM
same,TGI,SNB-19 CNS,> 100 µM
same,TGI,MALME-3M melanoma,> 100 µM
same,TGI,SW-620 colon,> 100 µM
same,TGI,UO-31 renal,> 100 µM
same,TGI,COLO 205 colon,> 100 µM
same,TGI,EKVX NSCLC,> 100 µM
same,TGI,OVCAR-3 ovarian,> 100 µM
same,TGI,SF-539 CNS,> 100 µM
same,TGI,M14 melanoma,> 100 µM
same,TGI,SK-MEL-28 melanoma,> 100 µM
same,TGI,HOP-92 NSCLC,> 100 µM
same,TGI,NCI-H460 lung,> 100 µM
same,TGI,SF-295 CNS,> 100 µM
same,TGI,IGROV1 ovarian,> 100 µM
same,TGI,BT-549 breast,> 100 µM
same,TGI,TK-10 renal,> 100 µM
same,TGI,U251 CNS,> 100 µM
same,TGI,MDA-N,> 100 µM
same,TGI,SNB-75 CNS,> 100 µM
same,TGI,786-0 renal,> 100 µM
same,TGI,NCI-H23 lung,> 100 µM
same,TGI,HL-60(TB) leukemia,> 100 µM
same,TGI,UACC-62 melanoma,> 100 µM
same,TGI,K-562 leukemia,> 100 µM
same,TGI,HS 578T breast,> 100 µM
same,TGI,MDA-MB-435,> 100 µM
same,TGI,SK-MEL-2 melanoma,> 100 µM
same,TGI,ACHN renal,> 100 µM
same,TGI,HT29 colon,> 100 µM
same,TGI,NCI-H226 lung,> 100 µM
same,TGI,SN12C renal,> 100 µM
same,TGI,MCF7 breast,> 100 µM
